From patent US20060069132A1, “Azolecarboxamide herbicides” (priority 2004, published 2006)

Columns and labels:
Surinam grass = experiment: Test B pre-/postemergence herbicide test; format: in vivo, Urochloa decumbens
How it was run: (§1)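 Herbicidal effect was judged by eye on a 0–100 scale after plants stood 13 to 15 days in the greenhouse following pre- or postemergence treatment with surfactant-containing formulations.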

corn = experiment: Test B pre-/postemergence herbicide test; format: in vivo, Zea mays
How it was run: as §1

barnyardgrass [1] = experiment: Test B pre-/postemergence herbicide test; format: in vivo, Echinochloa crus-galli
How it was run: (§2)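 Plants compared with untreated controls 13–15 days post-treatment and given a visual 0–100 injury score. Applications: preemergence to seeds; postemergence at 1- to 4-leaf (2–18 cm); paddy species flooded, 2-leaf stage. Vehicle non-phytotoxic, surfactant included.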

blackgrass = experiment: Test B postemergence herbicide test; format: in vivo, Alopecurus myosuroides; settings: scale 0 (no effect) to 100 (complete control)
How it was run: (§3)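 Formulated test chemicals went onto postemergence plants measuring 2 to 18 cm, at one to four leaves. For the paddy assay, species had reached two leaves. Scoring took place 13–15 days later by eye, relative to untreated plants, using 0 for no effect up to 100 for full control.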

wheat = experiment: Test B postemergence herbicide test; format: in vivo, Triticum aestivum; design: key to Wheat plant response rating: 0 = no effect, 100 = complete control; settings: scale 0 (no effect) to 100 (complete control)
How it was run: (§4)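 Plants grow to 1- to 4-leaf stage (2–18 cm) for postemergence spraying, or to 2-leaf stage for the paddy test. Formulated compound is applied. Greenhouse holding lasts 13–15 days. Response is scored visually relative to controls, 0 no effect to 100 complete control; a dash means no result.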

giant foxtail = experiment: Test B pre-/postemergence herbicide test; format: in vivo, Setaria faberi
How it was run: as §1

rice [2] = experiment: Test B flooded paddy test; format: in vivo, Oryza sativa; settings: 1000 g ai/ha, visual rating, scale 0 to 100 (0 no effect, 100 complete control), 13 to 15 days
How it was run: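 Treated at 2-leaf (paddy) or 1–4-leaf, 2–18 cm (postemergence); greenhouse 13–15 d; visual score vs control, 0 none to 100 complete control; dash = not tested.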

wild oat = experiment: Test B postemergence herbicide test; format: in vivo, Avena fatua; settings: scale 0 (no effect) to 100 (complete control)
How it was run: as §4

cocklebur = experiment: Test B pre-/postemergence herbicide test; format: in vivo, Xanthium strumarium
How it was run: as §2

pigweed = experiment: Test B pre-/postemergence herbicide test; format: in vivo, Amaranthus retroflexus
How it was run: as §1

[3] = tested on: small flower umbrella sedge; experiment: Test B flooded paddy test; format: in vivo, Cyperus difformis; settings: 1000 g ai/ha, visual rating, scale 0 to 100 (0 no effect, 100 complete control), 13 to 15 days
How it was run: as §3

morningglory = experiment: Test B pre-/postemergence herbicide test; format: in vivo, Ipomoea coccinea
How it was run: as §2

velvetleaf = experiment: Test B pre-/postemergence herbicide test; format: in vivo, Abutilon theophrasti
How it was run: as §1

barnyardgrass [4] = experiment: Test B flooded paddy test; format: in vivo, Echinochloa crus-galli; settings: 1000 g ai/ha, visual rating, scale 0 to 100 (0 no effect, 100 complete control), 13 to 15 days
How it was run: as §3

lambsquarters = experiment: Test B pre-/postemergence herbicide test; format: in vivo, Chenopodium album
How it was run: as §1

large crabgrass = experiment: Test B pre-/postemergence herbicide test; format: in vivo, Digitaria sanguinalis
How it was run: as §1

ducksalad = experiment: Test B flooded paddy test; format: in vivo, Heteranthera limosa; settings: 1000 g ai/ha, visual rating, scale 0 to 100 (0 no effect, 100 complete control), 13 to 15 days
How it was run: as §3

rice [5] = experiment: Test B pre-/postemergence herbicide test; format: in vivo, Oryza sativa; settings: preemergence, 125 g ai/ha; 0 to 100 scale, 0 is no effect, 100 is complete control
Source text: Seeds selected from barnyardgrass (Echinochloa crus-galli (L.) Beauv.), Surinam grass (Urochloa decumbens (Staph) R. D. Webster, previously named Brachiaria decumbens Stapf), cocklebur (Xanthium strumarium L.), corn (Zea mays L.), large crabgrass (Digitaria sanguinalis (L.) Scop.), giant foxtail (Setaria faberi Herim.), lambsquarters (Chenopodium album L.), morningglory (Ipomoea coccinea L.), pigweed (Amaranthus retroflexus L.), rice (Oryza sativa L.) and velvetleaf (Abutilon theophrasti Medik.) were planted and treated preemergence with test chemicals formulated in a non-phytotoxic solvent mixture which included a surfactant.
At the same time, plants selected from these crop and weed species and also blackgrass (Alopecurus myosuroides Huds.), wheat (Triticum aestivum L.) and wild oat (Avena fatua L.) were treated with postemergence applications of test chemicals formulated in the same manner. Plants ranged in height from 2 to 18 cm (1- to 4-leaf stage) for postemergence treatments. Plant species in the flooded paddy test consisted of rice (Oryza sativa L.), small flower umbrella sedge (Cyperus difformis L.), ducksalad (Heteranthera limosa (Sw.) Willd.) and barnyardgrass (Echinochloa crus-galli (L.) Beauv.) grown to the 2-leaf stage for testing. Treated plants and controls were maintained in a greenhouse for 13 to 15 days, after which time all species were compared to controls and visually evaluated. Plant response ratings, summarized in Table B, are based on a scale of 0 to 100 where 0 is no effect and 100 is complete control. A dash (-) response means no test result.

[6] = Postemergence, 500 g ai/ha, visual rating after 13 to 15 days, scale 0 (no effect) to 100 (complete control)
[7] = postemergence, 125 g ai/ha, visual rating, scale 0 (no effect) to 100 (complete control)
[8] = preemergence, 125 g ai/ha, 0 to 100 scale, 0 is no effect, 100 is complete control
[9] = Preemergence, 500 g ai/ha, scale 0 to 100
[10] = Postemergence, 500 g ai/ha, visual rating after 13 to 15 days
[11] = postemergence, 125 g ai/ha, visual rating

CCNC(=O)c1cc(NC(=O)c2cc(C(C)(C)C)nn2CC)ccc1C [Compound 68]
20: Plant response rating, Blackgrass (blackgrass; [10]) | Plant response rating, Oat, Wild (wild oat; [10]) | Plant response rating, Morningglory (morningglory; [8]) | Plant response rating, Lambsquarters (lambsquarters; [8])
0: Plant response rating, Surinam Grass (Surinam grass; [6]) | Surinam Grass plant response rating (Surinam grass; [7]) | Plant response rating, Surinam Grass (Surinam grass; [8]) | Plant response rating, Corn (corn; [6]) | Corn plant response rating (corn; [9]) | Corn plant response rating (corn; [7]) | Plant response rating, Corn (corn; [8]) | Plant response rating, Barnyardgrass (barnyardgrass [1]; [6]) | Barnyardgrass plant response rating (barnyardgrass [1]; [7]) | Plant response rating, Barnyardgrass (barnyardgrass [1]; [8]) | Plant response rating, Wheat (wheat; [10]) | Wheat plant response rating (wheat; [11]) | Plant response rating, Foxtail, Giant (giant foxtail; [6]) | Foxtail, Giant plant response rating (giant foxtail; [9]) | Foxtail, Giant plant response rating (giant foxtail; [7]) | Plant response rating, Foxtail, Giant (giant foxtail; [8]) | Rice plant response rating (rice [2]) | Cocklebur plant response rating (cocklebur; [9]) | Plant response rating, Cocklebur (cocklebur; [8]) | Sedge, Umbrella plant response rating [3] | Plant response rating, Morningglory (morningglory; [6]) | Morningglory plant response rating (morningglory; [7]) | Plant response rating, Velvetleaf (velvetleaf; [6]) | Velvetleaf plant response rating (velvetleaf; [7]) | Plant response rating, Velvetleaf (velvetleaf; [8]) | Barnyardgrass plant response rating (barnyardgrass [4]) | Lambsquarters plant response rating (lambsquarters; [7]) | Plant response rating, Crabgrass, Large (large crabgrass; [6]) | Crabgrass, Large plant response rating (large crabgrass; [9]) | Crabgrass, Large plant response rating (large crabgrass; [7]) | Plant response rating, Crabgrass, Large (large crabgrass; [8]) | Ducksalad plant response rating (ducksalad) | Plant response rating, Rice (rice [5])
70: Plant response rating, Pigweed (pigweed; [8])
30: Plant response rating, Pigweed (pigweed; [6])
10: Barnyardgrass plant response rating (barnyardgrass [1]; [9]) | Blackgrass plant response rating (blackgrass; [11]) | Oat, Wild plant response rating (wild oat; [11]) | Plant response rating, Cocklebur (cocklebur; [6]) | Cocklebur plant response rating (cocklebur; [7]) | Pigweed plant response rating (pigweed; [7]) | Plant response rating, Lambsquarters (lambsquarters; [6])
